Measured values reported in patent publication US20180125073A1, “PESTICIDAL COMPOSITIONS AND RELATED METHODS” (priority 2015, published 2018).

Tested on: green peach aphids (Myzus persicae)
Assay: Pesticidal activity against green peach aphid on cabbage plants after soil treatment
Type: in vivo
Conditions: no surfactant added
Experimental: Each tested compositions was prepared by mixing a predetermined amount of the CLOSER® SC insecticide (a sulfoxaflor concentrate having a sulfoxaflor concentration of 240 g/L) with a predetermined amount of the selected nonionic surfactant in an aqueous medium. Two nonionic surfactants were used in the study: alkyl polyglycoside AGNIQUE® PG 8107 surfactant from Cognis Corporation (C8-C10 alkyl polyglycoside with degree of polymer of 1.7), and PEG-3 tridecyl alcohol ether MAKON® TD3 surfactant from Stepan Company.
For example, the “Sulfoxaflor at 100 ppm” composition contained about 0.043% weight of sulfoxaflor based on the total weight of the composition (i.e., 100 ppm of sulfoxaflor per one gram of final soil mixture). “Sulfoxaflor at 100 ppm+AGNIQUE®” composition contained about 0.043% weight of sulfoxaflor based on the total weight of the composition (i.e., 100 ppm of sulfoxaflor per one gram of final soil mixture), and about 0.225% weight of alkyl polyglycoside AGNIQUE® PG 8107 surfactant based on the total weight of the composition (i.e., 384 ppm per one gram of the final soil mixture; 1500 ppm per one gram of the total soil liquid).
The imidacloprid pesticide PROVADO® 1.6 from Bayer CropScience LP (North Carolina, USA) was used as a standard commercial pesticidal composition for aphid control. The imidacloprid pesticide PROVADO® 1.6 was tested at three different loadings: 100 ppm, 25 ppm, and 6.25 ppm per gram of final soil mixture.
In this EXAMPLE 7, water was tested as a control composition. Furthermore, an aqueous solution of alkyl polyglycoside AGNIQUE® PG 8107 surfactant and an aqueous solution of PEG-3 tridecyl alcohol ether MAKON® TD3 surfactant were tested. […]
Each of the 1-ounce clear cups was filled with about 30 grams of the inoculated Midwest field soil having the components as shown in TABLE 7. […] The soil moisture of the Midwest field soil was about 15% as measured by Mettler LJ16 Moisture Analyzer (15 minutes and 100° C.). […]

## C[C@@H](c1ccc(C(F)(F)F)nc1)[S@@](C)(=O)=NC#N (racemic) [Sulfoxaflor, [methyl(oxo) {1-[6-(trifluoromethyl)-3-pyridyl]ethyl}-λ^6-sulfanylidene]cyanamide]
DAT of 21 days, loading 6.25 ppm
  number of live GPA aphids on cabbage plant: about 38
DAT of 21 days, loading 100 ppm per gram of final soil mixture
  number of live GPA aphids on cabbage plant: no live GPA aphid
DAT of 28 days, sulfoxaflor 100 ppm
  number of live GPA aphids on cabbage plant: no live GPA aphid
